Numbered stars: 1 amine (or outer) side, 2 acyl side, 3 side chain; on linkers, the order of the positions; unused ones are H or OH. Square brackets hold non-standard residues; d marks the D form. Side chains are listed from the residue outwards. Peptide text beside a SMILES is read from it. * marks the point of attachment. γGlu = O=C(O)[C@H](CCC(=O)[*:2])N[*:1]; Palmitoyl = CCCCCCCCCCCCCCCC(=O)*; Aib = CC(C)(N)C(=O)O
Legend:
human Glucagon-R = target: T1, human Glucagon-R (Homo sapiens, UniProt P47871); assay: Glucagon receptor efficacy assay (cAMP formation in HEK293 cells expressing human Glucagon-R); format: cell-based; details: Table 1a, HEK293 cells expressing hGlucagonR, read-out: EC50 (nM) GluR
T1 construct: expressed in transfected cells
T1 sequence (P47871 26-477): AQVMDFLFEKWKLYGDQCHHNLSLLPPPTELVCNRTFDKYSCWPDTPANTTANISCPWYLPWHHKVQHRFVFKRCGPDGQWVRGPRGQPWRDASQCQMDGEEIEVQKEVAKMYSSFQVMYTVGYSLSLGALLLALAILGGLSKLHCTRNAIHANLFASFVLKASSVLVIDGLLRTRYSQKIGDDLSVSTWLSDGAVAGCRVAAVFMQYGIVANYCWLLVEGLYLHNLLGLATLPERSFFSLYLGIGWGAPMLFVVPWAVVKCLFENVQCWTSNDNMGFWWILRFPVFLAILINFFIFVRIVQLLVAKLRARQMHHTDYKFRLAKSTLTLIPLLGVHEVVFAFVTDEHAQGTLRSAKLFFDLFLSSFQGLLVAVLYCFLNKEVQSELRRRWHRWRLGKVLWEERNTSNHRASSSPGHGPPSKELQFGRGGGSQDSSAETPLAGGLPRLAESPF
Procedure: The 5′-end primers additionally encoded a near Kozak consensus sequence to ensure efficient translation.
48 hr after transfection cells were seeded for limited dilution cloning and selected with 1 mg/ml G418 in the culture medium.
On the day of analysis, growth medium was removed and the cells washed once with 200 μl Tyrode buffer. […] The reaction was stopped by addition of 25 μl 0.5 M HCl and incubated on ice for 60 min. The cAMP content was estimated using the FlashPlate® cAMP kit from Perkin-Elmer.
Efficacy of the GluGLP-1 agonists were estimated by exposing cells expressing hGlucagonR and hGLP-1R to the listed acylated compounds at increasing concentrations and measuring the formed cAMP as described in Methods.

[1] = Pharmacokinetic screening in mouse plasma after subcutaneous administration; format: in vivo; details: sc, mice, 100 nmol/kg s.c., * = only two time points used for calculation
Procedure: Mice were dosed 100 nmol/kg subcutaneously (s.c.). The mice were sacrificed and the blood collected at the following time points; 0.5, 2, 4, 6, 16 and 24 h. Plasma samples were analyzed using protein precipitation, followed by solid phase extraction (SPE) and liquid chromatography mass spectrometry (LC-MS).
Pharmacokinetic profiles were determined for various acylated compounds.

[2] = Body weight gain in high fat fed C57BL/6J mice (10 days); format: in vivo; details: short term high fat-fed C57BL/6J mice; for body weight gain, high dose: 5 nmol/kg b.i.d. s.c.
Procedure: C57Bl/6J male mice, 6 weeks old, were acclimatized in their new environment for 4 weeks with free access to high fat diet (HFD) (D12492, Research Diet Inc., New Brunswick, USA) and water. The animals were injected s.c. with 100 μl vehicle for a period of three days to acclimatize the animals to handling and injections, prior to initiation of peptide treatment. […] Throughout the study, body weights were recorded daily and used to administer the body weight-corrected doses of peptide. All animals were sacrificed on the same day by cervical dislocation.
C57Bl/6J male mice on high fat diet (HFD) were treated (b.i.d.; s.c.) (0.5 and 5 nmol/kg) or vehicle. Body weights were recorded daily and used to administer the body weight-corrected doses of peptide throughout the study. Data are shown as mean±SEM in FIG. 7.

[3] = Liver weight/body weight of C57BL/6J mice treated for 2 weeks; format: in vivo; details: 5 nmol/kg twice daily s.c.
Procedure: Mice were treated twice daily s.c. with Cpd. 1 and Cpd. 11 (at two doses: 0.5 and 5 nmol/kg) or vehicle for 2 weeks. Throughout the study, body weights were recorded daily and used to administer the body weight-corrected doses of peptide. On the day of sacrifice, the liver was exposed, and weighed.

| Molecule | EC50 (human Glucagon-R) | half-life [1] | further results |
| --- | --- | --- | --- |
| CCCCCCCCCCCCCCCC(=O)N[C@@H](CCC(=O)NCCCC[C@H](NC(=O)[C@H](C)NC(=O)[C@H](C)NC(=O)[C@H](CCCCN)NC(=O)[C@H](CO)NC(=O)[C@H](CC(=O)O)NC(=O)[C@H](CC(C)C)NC(=O)[C@H](Cc1ccc(O)cc1)NC(=O)[C@H](CCCCN)NC(=O)[C@H](CO)NC(=O)[C@H](Cc1ccc(O)cc1)NC(=O)[C@H](CC(=O)O)NC(=O)[C@H](CO)NC(=O)[C@@H](NC(=O)[C@H](Cc1ccccc1)NC(=O)[C@@H](NC(=O)CNC(=O)[C@H](CCC(N)=O)NC(=O)C(C)(C)NC(=O)[C@@H](N)Cc1c[nH]cn1)[C@@H](C)O)[C@@H](C)O)C(=O)N[C@@H](CC(=O)O)C(=O)N[C@@H](Cc1ccccc1)C(=O)N[C@H](C(=O)N[C@@H](CCC(=O)O)C(=O)N[C@@H](Cc1c[nH]c2ccccc12)C(=O)N[C@@H](CC(C)C)C(=O)N[C@@H](CC(C)C)C(=O)N[C@@H](CO)C(=O)N[C@@H](C)C(N)=O)C(C)C)C(=O)O [Compound 35] (H-H[Aib]QGTFTSDYSKYLDSKAAK([γGlu-Palmitoyl])DFVEWLLSA-NH2) | 0.18 nM |  |  |
| CCCCCCCCCCCCCCCC(=O)NCCCC(=O)NCCCC[C@H](NC(=O)[C@H](CO)NC(=O)[C@H](CC(=O)O)NC(=O)[C@H](CC(C)C)NC(=O)[C@H](Cc1ccc(O)cc1)NC(=O)[C@H](CCCCN)NC(=O)[C@H](CO)NC(=O)[C@H](Cc1ccc(O)cc1)NC(=O)[C@H](CC(=O)O)NC(=O)[C@H](CO)NC(=O)[C@@H](NC(=O)[C@H](Cc1ccccc1)NC(=O)[C@@H](NC(=O)CNC(=O)[C@H](CCC(N)=O)NC(=O)C(C)(C)NC(=O)[C@@H](N)Cc1c[nH]cn1)[C@@H](C)O)[C@@H](C)O)C(=O)N[C@@H](C)C(=O)N[C@@H](C)C(=O)N[C@@H](Cc1c[nH]cn1)C(=O)N[C@@H](CC(=O)O)C(=O)N[C@@H](Cc1ccccc1)C(=O)N[C@H](C(=O)N[C@@H](CCC(=O)O)C(=O)N[C@@H](Cc1c[nH]c2ccccc12)C(=O)N[C@@H](CC(C)C)C(=O)N[C@@H](CC(C)C)C(=O)N[C@@H](CO)C(=O)N[C@@H](C)C(N)=O)C(C)C [Compound 27] | 0.147 nM |  |  |
| CCCCCCCCCCCCCCCC(=O)N[C@@H](CCC(=O)NCCCC[C@H](NC(=O)[C@H](CO)NC(=O)[C@H](CC(=O)O)NC(=O)[C@H](CC(C)C)NC(=O)[C@H](Cc1ccc(O)cc1)NC(=O)[C@H](CCCCN)NC(=O)[C@H](CO)NC(=O)[C@H](Cc1ccc(O)cc1)NC(=O)[C@H](CC(=O)O)NC(=O)[C@H](CO)NC(=O)[C@@H](NC(=O)[C@H](Cc1ccccc1)NC(=O)[C@@H](NC(=O)CNC(=O)[C@H](CCC(N)=O)NC(=O)C(C)(C)NC(=O)[C@@H](N)Cc1c[nH]cn1)[C@@H](C)O)[C@@H](C)O)C(=O)N[C@@H](C)C(=O)N[C@@H](C)C(=O)N[C@@H](Cc1c[nH]cn1)C(=O)N[C@@H](CC(=O)O)C(=O)N[C@@H](Cc1ccccc1)C(=O)N[C@H](C(=O)N[C@@H](CCC(=O)O)C(=O)N[C@@H](Cc1c[nH]c2ccccc12)C(=O)N[C@@H](CC(C)C)C(=O)N[C@@H](CC(C)C)C(=O)N[C@@H](CCC(=O)O)C(=O)N[C@@H](C)C(N)=O)C(C)C)C(=O)O [Compound 43] (H-H[Aib]QGTFTSDYSKYLDSK([γGlu-Palmitoyl])AAHDFVEWLLEA-NH2) | 0.12 nM |  |  |
| CCCCCCCCCCCCCCCC(=O)N[C@@H](CCC(=O)NCCCC[C@H](NC(=O)[C@H](CC(C)C)NC(=O)[C@H](CC(C)C)NC(=O)[C@H](Cc1c[nH]c2ccccc12)NC(=O)[C@H](CCC(=O)O)NC(=O)[C@@H](NC(=O)[C@H](Cc1ccccc1)NC(=O)[C@H](CC(=O)O)NC(=O)[C@H](Cc1c[nH]cn1)NC(=O)[C@H](C)NC(=O)[C@H](C)NC(=O)[C@H](CCCCN)NC(=O)[C@H](CO)NC(=O)[C@H](CC(=O)O)NC(=O)[C@H](CC(C)C)NC(=O)[C@H](Cc1ccc(O)cc1)NC(=O)[C@H](CCCCN)NC(=O)[C@H](CO)NC(=O)[C@H](Cc1ccc(O)cc1)NC(=O)[C@H](CC(=O)O)NC(=O)[C@H](CO)NC(=O)[C@@H](NC(=O)[C@H](Cc1ccccc1)NC(=O)[C@@H](NC(=O)CNC(=O)[C@H](CCC(N)=O)NC(=O)[C@H](CO)NC(=O)[C@@H](N)Cc1c[nH]cn1)[C@@H](C)O)[C@@H](C)O)C(C)C)C(=O)N[C@@H](C)C(N)=O)C(=O)O [Compound 6] (H-HSQGTFTSDYSKYLDSKAAHDFVEWLLK([γGlu-Palmitoyl])A-NH2) |  | 4.8 h | body weight gain, low dose ([2]; 0.5 nmol/kg b.i.d. s.c.): significantly decreased body weight gain; body weight gain, high dose [2]: only at the low dose |
| CCCCCCCCCCCCCCCC(=O)N[C@@H](CCC(=O)NCCCC[C@H](NC(=O)[C@H](CC(C)C)NC(=O)[C@H](CC(C)C)NC(=O)[C@H](Cc1c[nH]c2ccccc12)NC(=O)[C@H](CCC(=O)O)NC(=O)[C@@H](NC(=O)[C@H](Cc1ccccc1)NC(=O)[C@H](CC(=O)O)NC(=O)[C@H](Cc1c[nH]cn1)NC(=O)[C@H](C)NC(=O)[C@H](C)NC(=O)[C@H](CCCCN)NC(=O)[C@H](CO)NC(=O)[C@H](CC(=O)O)NC(=O)[C@H](CC(C)C)NC(=O)[C@H](Cc1ccc(O)cc1)NC(=O)[C@H](CCCCN)NC(=O)[C@H](CO)NC(=O)[C@H](Cc1ccc(O)cc1)NC(=O)[C@H](CC(=O)O)NC(=O)[C@H](CO)NC(=O)[C@@H](NC(=O)[C@H](Cc1ccccc1)NC(=O)[C@@H](NC(=O)CNC(=O)[C@H](CCC(N)=O)NC(=O)C(C)(C)NC(=O)[C@@H](N)Cc1c[nH]cn1)[C@@H](C)O)[C@@H](C)O)C(C)C)C(=O)N[C@@H](C)C(N)=O)C(=O)O [Compound 12] (H-H[Aib]QGTFTSDYSKYLDSKAAHDFVEWLLK([γGlu-Palmitoyl])A-NH2) |  | 6 h | body weight gain, high dose [2]: significantly decreased body weight gain at the high dose |
| CCCCCCCCCCCCCCCC(=O)N[C@@H](CCC(=O)NCCCC[C@H](NC(=O)[C@H](CC(C)C)NC(=O)[C@H](CC(C)C)NC(=O)[C@H](Cc1c[nH]c2ccccc12)NC(=O)[C@H](CCC(=O)O)NC(=O)[C@@H](NC(=O)[C@H](Cc1ccccc1)NC(=O)[C@H](CC(=O)O)NC(=O)[C@H](Cc1c[nH]cn1)NC(=O)[C@H](C)NC(=O)[C@H](C)NC(=O)[C@H](CCCCN)NC(=O)[C@H](CO)NC(=O)[C@H](CC(=O)O)NC(=O)[C@H](CC(C)C)NC(=O)[C@H](Cc1ccc(O)cc1)NC(=O)[C@H](CCCCN)NC(=O)[C@H](CO)NC(=O)[C@H](Cc1ccc(O)cc1)NC(=O)[C@H](CC(=O)O)NC(=O)[C@H](CO)NC(=O)[C@@H](NC(=O)[C@H](Cc1ccccc1)NC(=O)[C@@H](NC(=O)CNC(=O)[C@H](CCC(N)=O)NC(=O)C(C)(C)NC(=O)[C@@H](N)Cc1c[nH]cn1)[C@@H](C)O)[C@@H](C)O)C(C)C)C(=O)N[C@@H](C)C(N)=O)C(=O)O [Compound 37] (H-H[Aib]QGTFTSDYSKYLDSKAAHDFVEWLLK([γGlu-Palmitoyl])A-NH2) | 0.147 nM |  |  |
| H-HSQGTFTSDYSKYLDSKAAHDFVEWLLRA-NH2 [Compound 1] |  | 0.23 h | liver weight/body weight ratio, high dose [3]: significantly increased |
| CCCCCCCCCCCCCCCC(=O)N[C@@H](CCC(=O)NCCCC[C@H](NC(=O)[C@H](CO)NC(=O)[C@H](CC(=O)O)NC(=O)[C@H](CC(C)C)NC(=O)[C@H](Cc1ccc(O)cc1)NC(=O)[C@H](CCCCN)NC(=O)[C@H](CO)NC(=O)[C@H](Cc1ccc(O)cc1)NC(=O)[C@H](CC(=O)O)NC(=O)[C@H](CO)NC(=O)[C@@H](NC(=O)[C@H](Cc1ccccc1)NC(=O)[C@@H](NC(=O)CNC(=O)[C@H](CCC(N)=O)NC(=O)C(C)(C)NC(=O)[C@@H](N)Cc1c[nH]cn1)[C@@H](C)O)[C@@H](C)O)C(=O)N[C@@H](C)C(=O)N[C@@H](C)C(=O)N[C@@H](CCC(=O)O)C(=O)N[C@@H](CC(=O)O)C(=O)N[C@@H](Cc1ccccc1)C(=O)N[C@H](C(=O)N[C@@H](CCC(=O)O)C(=O)N[C@@H](Cc1c[nH]c2ccccc12)C(=O)N[C@@H](CC(C)C)C(=O)N[C@@H](CC(C)C)C(=O)N[C@@H](CO)C(=O)N[C@@H](C)C(N)=O)C(C)C)C(=O)O [Compound 42] (H-H[Aib]QGTFTSDYSKYLDSK([γGlu-Palmitoyl])AAEDFVEWLLSA-NH2) | 0.27 nM |  |  |
